We go through 32 compounds from patent US11014929B2, “Pyrazolopyrimidine compounds and uses thereof” (Incyte Corporation, priority 2016, dated 2021).

SMILES strings stand for the structures. pKi: −log10 of the molar value.

For this test, the target named is HPK1 (Homo sapiens (Human), UniProt Q92918). As to the kind of experiment: HPK1 Kinase Binding Assay. The note with it: LanthaScreen tracer 222 binding, active HPK1, one hour incubation at 25° C. As for the experimental part: A stock solution of 1 mM test compound was prepared in DMSO. The compound plate was prepared by 3-fold and 11-point serial dilutions. 0.1 μL of the compound in DMSO was transferred from the compound plate to the white 384 well polystyrene plates. The assay buffer contained 50 mM HEPES, pH 7.5, 0.01% Tween-20, 5 mM MgCl2, 0.01% BSA, and 5 mM DTT. 5 μl of 4 nM active HPK1 (SignalChem M23-11G) prepared in the buffer was added to the plate. The enzyme concentration given was based on the given stock concentration reported by the vender. 5 μl of 18 nM tracer 222 (ThermoFisher PV6121) and 4 nM LanthaScreen Eu-Anti GST antibody (ThermoFisher PV5595) were added. After one hour incubation at 25° C., the plates were read on a PHERAstar FS plate reader (BMG Labtech). Ki values were determined.
Chain of HPK1 (Q92918 1-346): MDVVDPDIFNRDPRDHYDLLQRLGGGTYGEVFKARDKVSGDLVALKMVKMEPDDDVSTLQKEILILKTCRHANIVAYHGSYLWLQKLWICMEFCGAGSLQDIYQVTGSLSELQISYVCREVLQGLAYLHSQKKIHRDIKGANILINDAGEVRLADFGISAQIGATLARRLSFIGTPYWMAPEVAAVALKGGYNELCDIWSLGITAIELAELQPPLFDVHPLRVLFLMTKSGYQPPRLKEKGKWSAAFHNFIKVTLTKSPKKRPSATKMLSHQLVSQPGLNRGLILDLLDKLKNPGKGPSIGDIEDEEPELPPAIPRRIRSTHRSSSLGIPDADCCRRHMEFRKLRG
With `COc1cccc(F)c1-c1ncc2[nH]nc(-c3ccc(N4CCNCC4)nc3)c2n1` [Example 52, 5-(2-Fluoro-6-methoxyphenyl)-3-(6-(piperazin-1-yl)pyridin-3-yl)-1H-pyrazolo[4,3-d]pyrimidine], the pKi is not below 7.00.
The value for `COc1cccc(F)c1-c1ncc2[nH]nc(-c3ccc(C(=O)N(C)C)cc3)c2n1` [Example 22, 4-(5-(2-Fluoro-6-methoxyphenyl)-1H-pyrazolo[4,3-d]pyrimidin-3-yl)-N,N-dimethylbenzamide] was 6.30 to 7.00; that for `CNC1CCc2c1cc(F)c(-c1ncc3[nH]nc(-c4cnc(N5CCN(C)CC5)nc4)c3n1)c2F` (centres unmarked) [Example 114, 4,6-Difluoro-N-methyl-5-(3-(2-(4-methylpiperazin-1-yl)pyrimidin-5-yl)-1H-pyrazolo[4,3-d]pyrimidin-5-yl)-2,3-dihydro-1H-inden-1-amine] was not below 7.00.
`COc1cccc(F)c1-c1ncc2[nH]nc(-c3ccc(CN4CCOCC4)cc3)c2n1` [Example 24, 4-(4-(5-(2-Fluoro-6-methoxyphenyl)-1H-pyrazolo[4,3-d]pyrimidin-3-yl)benzyl)morpholine] showed a pKi not below 7.00.
The value for `COc1cccc(F)c1-c1ncc2[nH]nc(-c3ccc(C(C)(C)C#N)cc3)c2n1` [Example 42, 2-(4-(5-(2-Fluoro-6-methoxyphenyl)-1H-pyrazolo[4,3-d]pyrimidin-3-yl)phenyl)-2-methylpropanenitrile] was not below 7.00; that for `CN1CCN(c2ccc(-c3n[nH]c4cnc(-c5cccnc5)nc34)cc2)CC1` [Example 5, 3-(4-(4-Methylpiperazin-1-yl)phenyl)-5-(pyridin-3-yl)-1H-pyrazolo[4,3-d]pyrimidine] was not below 7.00; that for `COc1cccc(F)c1-c1ncc2[nH]nc(-c3cnn(-c4ccccc4)c3)c2n1` [Example 48, 5-(2-Fluoro-6-methoxyphenyl)-3-(1-phenyl-1H-pyrazol-4-yl)-1H-pyrazolo[4,3-d]pyrimidine] was not below 7.00.
With `CNC1CCCc2c1ccc(F)c2-c1ncc2[nH]nc(-c3ccc(N4CCN(C)CC4)nc3)c2n1` (centres unmarked) [Example 120, 6-Fluoro-N-methyl-5-(3-(6-(4-methylpiperazin-1-yl)pyridin-3-yl)-1H-pyrazolo[4,3-d]pyrimidin-5-yl)-1,2,3,4-tetrahydronaphthalen-1-amine] the figure was not below 7.00; with `CS(=O)(=O)NCc1ccc(-c2n[nH]c3cnc(-c4c(F)cc5c(c4F)CNCC5)nc23)cc1` [Example 95, N-(4-(5-(6,8-Difluoro-1,2,3,4-tetrahydroisoquinolin-7-yl)-1H-pyrazolo[4,3-d]pyrimidin-3-yl)benzyl)methanesulfonamide], not below 7.00; with `Cc1cccc(F)c1-c1ncc2[nH]nc(-c3ccc(N4CCCC(O)C4)cc3)c2n1` (centres unmarked) [Example 57, 1-(4-(5-(2-Fluoro-6-methylphenyl)-1H-pyrazolo[4,3-d]pyrimidin-3-yl)phenyl)piperidin-3-ol], not below 7.00.
`Cc1cccc(F)c1-c1ncc2[nH]nc(-c3ccc(N4CCC(O)C4)cc3)c2n1` (centres unmarked) [Example 60, 1-(4-(5-(2-Fluoro-6-methylphenyl)-1H-pyrazolo[4,3-d]pyrimidin-3-yl)phenyl)pyrrolidin-3-ol]: the pKi was not below 7.00.
On to `CNCc1cc(F)c(-c2ncc3[nH]nc(-c4cnn(C)c4)c3n2)c(F)c1` [Example 84, 1-(3,5-Difluoro-4-(3-(1-methyl-1H-pyrazol-4-yl)-1H-pyrazolo[4,3-d]pyrimidin-5-yl)phenyl)-N-methylmethanamine], for which the pKi is not below 7.00.
In turn, `CNCc1cc(C)c(-c2ncc3[nH]nc(-c4cnn(C)c4)c3n2)c(F)c1` [Example 78, 1-(3-Fluoro-5-methyl-4-(3-(1-methyl-1H-pyrazol-4-yl)-1H-pyrazolo[4,3-d]pyrimidin-5-yl)phenyl)-N-methylmethanamine] showed a pKi not below 7.00.
The value for `COc1ccncc1-c1ncc2[nH]nc(-c3ccc(N4CCN(C)CC4)nc3)c2n1` [Example 103, 5-(4-Methoxypyridin-3-yl)-3-(6-(4-methylpiperazin-1-yl)pyridin-3-yl)-1H-pyrazolo[4,3-d]pyrimidine] was not below 7.00; that for `CCNCc1cc(F)c(-c2ncc3[nH]nc(-c4cnn(C)c4)c3n2)c(OC)c1` [Example 87, N-(3-Fluoro-5-methoxy-4-(3-(1-methyl-1H-pyrazol-4-yl)-1H-pyrazolo[4,3-d]pyrimidin-5-yl)benzyl)ethanamine] was not below 7.00; that for `Cc1c2c(cc(F)c1-c1ncc3[nH]nc(-c4ccnc(N5CCN(C)CC5)c4)c3n1)CCNC2` [Example 107, 6-Fluoro-8-methyl-7-(3-(2-(4-methylpiperazin-1-yl)pyridin-4-yl)-1H-pyrazolo[4,3-d]pyrimidin-5-yl)-1,2,3,4-tetrahydroisoquinoline] was not below 7.00.
With `CN1CCN(c2ccc(-c3n[nH]c4cnc(-c5cccc6c5CCNC6)nc34)cc2)CC1` [Example 10, 5-(3-(4-(4-Methylpiperazin-1-yl)phenyl)-1H-pyrazolo[4,3-d]pyrimidin-5-yl)-1,2,3,4-tetrahydroisoquinoline] the figure was not below 7.00.
The value for `COc1cccc(F)c1-c1ncc2[nH]nc(-c3cccc(N(C)C)c3)c2n1` [Example 30, 3-(5-(2-Fluoro-6-methoxyphenyl)-1H-pyrazolo[4,3-d]pyrimidin-3-yl)-N,N-dimethylaniline] was not below 7.00.
`COc1ccncc1-c1ncc2[nH]nc(-c3ccc(N4CCN(C)CC4)cc3)c2n1` [Example 102, 5-(4-Methoxypyridin-3-yl)-3-(4-(4-methylpiperazin-1-yl)phenyl)-1H-pyrazolo[4,3-d]pyrimidine]: the pKi was not below 7.00.
With `CN(C)c1ncc(-c2n[nH]c3cnc(-c4c(F)cc5c(c4F)CNCC5)nc23)cn1` [Example 93, 5-(5-(6,8-Difluoro-1,2,3,4-tetrahydroisoquinolin-7-yl)-1H-pyrazolo[4,3-d]pyrimidin-3-yl)-N,N-dimethylpyrimidin-2-amine] the figure was not below 7.00.
`Cc1cc(C2CCCCN2)cc(F)c1-c1ncc2[nH]nc(-c3ccc(N4CCN(C)CC4)cc3)c2n1` (centres unmarked) [Example 81, 5-(2-Fluoro-6-methyl-4-(piperidin-2-yl)phenyl)-3-(4-(4-methylpiperazin-1-yl)phenyl)-1H-pyrazolo[4,3-d]pyrimidine] had a pKi not below 7.00.
With `CN1CCN(c2ccc(-c3n[nH]c4cnc(-c5ccc6c(c5)C(=O)NC6)nc34)cc2)CC1` [Example 7, 6-(3-(4-(4-Methylpiperazin-1-yl)phenyl)-1H-pyrazolo[4,3-d]pyrimidin-5-yl)isoindolin-1-one] the figure was not below 7.00.
On to `OCCNc1ncc(-c2n[nH]c3cnc(-c4c(F)cc5c(c4F)CNCC5)nc23)cn1` [Example 91, 2-(5-(5-(6,8-Difluoro-1,2,3,4-tetrahydroisoquinolin-7-yl)-1H-pyrazolo[4,3-d]pyrimidin-3-yl)pyrimidin-2-ylamino)ethanol], for which the pKi was not below 7.00.
The value for `COc1ccc(-c2n[nH]c3cnc(-c4c(F)cccc4OC)nc23)cc1` [Example 35, 5-(2-Fluoro-6-methoxyphenyl)-3-(4-methoxyphenyl)-1H-pyrazolo[4,3-d]pyrimidine] was not below 7.00; that for `Cc1cncc(-c2ncc3[nH]nc(-c4ccc(N5CCN(C)CC5)cc4)c3n2)c1` [Example 6, 3-(4-(4-Methylpiperazin-1-yl)phenyl)-5-(5-methylpyridin-3-yl)-1H-pyrazolo[4,3-d]pyrimidine] was not below 7.00.
`CNCc1cc(F)c(-c2ncc3[nH]nc(-c4ccc(N5CCN(CC(C)(C)O)CC5)nc4)c3n2)c(F)c1` [Example 70, 1-(4-(5-(5-(2,6-Difluoro-4-((methylamino)methyl)phenyl)-1H-pyrazolo[4,3-d]pyrimidin-3-yl)pyridin-2-yl)piperazin-1-yl)-2-methylpropan-2-ol] showed a pKi not below 7.00.
Compound `CN1CCN(Cc2ccc(-c3n[nH]c4cnc(-c5c(F)ccc6c5CCNC6)nc34)cc2)CC1` [Example 106, 6-Fluoro-5-(3-(4-((4-methylpiperazin-1-yl)methyl)phenyl)-1H-pyrazolo[4,3-d]pyrimidin-5-yl)-1,2,3,4-tetrahydroisoquinoline] had a pKi not below 7.00.
The value for `CNC1CCc2c1cc(F)c(-c1ncc3[nH]nc(-c4ccc(N5CCOCC5)nc4)c3n1)c2F` (centres unmarked) [Example 113, 4,6-Difluoro-N-methyl-5-(3-(6-morpholinopyridin-3-yl)-1H-pyrazolo[4,3-d]pyrimidin-5-yl)-2,3-dihydro-1H-inden-1-amine] was not below 7.00; that for `COc1cccc(F)c1-c1ncc2[nH]nc(-c3cccc(N4CCNCC4)c3)c2n1` [Example 27, 5-(2-Fluoro-6-methoxyphenyl)-3-(3-(piperazin-1-yl)phenyl)-1H-pyrazolo[4,3-d]pyrimidine] was not below 7.00; that for `CN1CCN(c2cc(-c3n[nH]c4cnc(-c5c(F)cc6c(c5F)CNCC6)nc34)ccn2)CC1` [Example 90, 6,8-Difluoro-7-(3-(2-(4-methylpiperazin-1-yl)pyridin-4-yl)-1H-pyrazolo[4,3-d]pyrimidin-5-yl)-1,2,3,4-tetrahydroisoquinoline] was not below 7.00.
With `Cc1cc(C2CCCN2)cc(F)c1-c1ncc2[nH]nc(-c3ccc(N4CCN(C)CC4)cc3)c2n1` (centres unmarked) [Example 80, 5-(2-Fluoro-6-methyl-4-(pyrrolidin-2-yl)phenyl)-3-(4-(4-methylpiperazin-1-yl)phenyl)-1H-pyrazolo[4,3-d]pyrimidine] the figure was not below 7.00; with `COc1cccc(F)c1-c1ncc2[nH]nc(-c3ccc(CN4CCN(C)CC4)cc3)c2n1` [Example 23, 5-(2-Fluoro-6-methoxyphenyl)-3-(4-((4-methylpiperazin-1-yl)methyl)phenyl)-1H-pyrazolo[4,3-d]pyrimidine], not below 7.00.
